Measured values published in patent publication US20060127980A1, “Human excitatory amino acid transporter-2 gene promoter and uses thereof” (priority 2003, published 2006).

Tests used:
hEAAT2 transcription = assay: Nuclear run-on assay of hEAAT2 transcription in PHFA; assay type: cell-based, human; conditions: 7-day treatment
Description: (§1) FIG. 4A-D. Effect of modulators of hEAAT2 activity on hEAAT2 expression and hEAAT2 promoter activity in PHFA. A. A Northern analysis of hEAAT2 and GAPDH mRNA expression following treatment with EGF (30 ng/ml), TGF-α (30 ng/ml), dbcAMP (200 μM, bromo-cAMP (100 μM) or TNF-α (200 U/ml) for 7 days. B. Nuclear run-on assays determining the relative rates of hEAAT2 and GAPDH transcription as a function of 7-day treatment with the same concentrations of the indicated agents. C. A time course of mRNA expression of hEAAT2 and GAPDH following treatment with EGF, bromo-cAMP or TNF-α (same concentrations as in A.). D. Fold luciferase activity in PHFA transfected with flhEAAT2Prom-luc or various deletion mutants of hEAAT2 and non-transfected controls treated with the indicated compounds for four days.
Primer Extension Analysis and Nuclear Run-on Assays. Primer extension assays were performed as described (Su et al., 2000, Oncogene 19(30):3411-3421). A primer with the sequence 5′-[…]-3′ (SEQ ID NO:6) complementary to the 5′ UTR of the hEAAT2 cDNA was used for this assay. Nuclear run-on assays were performed as described (Su et al., 1997, Proc Natl Acad Sci USA 94(17):9125-9130).
To examine whether stimulation of hEAAT2 expression involves transcriptional changes, nuclear run-on assays were performed.

hEAAT2 mRNA = assay: Northern blot of hEAAT2 mRNA in PHFA treated with modulators; assay type: cell-based, human
Description: as §1
(§2) Northern and Western Blotting Assays. Total cellular RNA was isolated by the guanidinium/phenol extraction method and Northern blotting was performed as described (Huang et al., 2001, Oncogene 20(48):7051-7063; Su et al., 2000, Oncogene 19(30):3411-3421; Su et al., 2001, Nucleic Acids Res 29(8):1661-1671). Western blotting assays were performed as described (Su et al., 1998, Proc Natl Acad Sci USA 95(24):14400-14405; Su et al., 2002, Oncogene 21(22):3592-602).
Positive and Negative Regulation of hEAAT2 Transcription, Promoter Activity and mRNA Levels in PHFA. Several enhancers of GLT-1 expression in rat astrocytes have been identified, including epidermal growth factor (EGF), transforming growth factor-α (TGF-α) and dibutyryl cyclic AMP (dbcAMP) (Swanson et al., 1997, J Neurosci 17(3):932-940; Zelenaia et al., 2000, Mol Pharmacol 57(4):667-678). Based on these considerations, experiments were performed to determine if these agents similarly modify human hEAAT2 expression in PHFA. Consistent with previous observations in rat astrocytes, 7-day treatment with EGF, TGF-α, and two analogs of cAMP, dbcAMP and bromo-cAMP, stimulated hEAAT2 mRNA expression in PHFA, whereas TNF-α decreased expression (FIG. 4B). […] In contrast, TNF-α decreased expression by 48 h (FIG. 4C).

glutamate uptake by PHFA = conditions: Fine et al., 1996; cited from earlier work
hEAAT2 protein = assay: Western blot of EAAT2 protein in PHFA; assay type: cell-based, human
Description: FIG. 5A-E. Effect of pharmacological inhibitors on hEAAT2 promoter activity, and mRNA and protein expression in PHFA following various treatment protocols. A. hEAAT2 promoter activity in PHFA, either untreated (−) or treated with EGF (30 ng/ml), in the absence (−) or presence (+) of KT5720 (5 μM), AG1478 (1 μM), PDTC (100 μM), wortmannin (WRT) (100 nM) or PD98049 (PD) (50 μM). B. hEAAT2 promoter activity in PHFA, either untreated (−) or treated with bromo-cAMP (250 μM) in the absence (−) or presence (+) of KT5720 (5 μM), AG1478 (1 μM), PDTC (100 μM), wortmannin (WRT) (100 nM) or PD98049 (PD) (50 μM). C. hEAAT2 promoter activity in PHFA, either untreated (−) or treated with TNF-α (200 U/ml), in the absence (−) or presence (+) of KT5720 (5 μM), AG1478 (1 μM), PDTC (100 μM), wortmannin (WRT) (100 nM) or PD98049 (PD) (50 μM). D. The effect of the various treatment protocols on hEAAT2 and GAPDH mRNA levels. Upper panel presents relative hEAAT2 RNA expression versus GAPDH expression relative to control untreated or treated samples based on scanning of autoradiograms. Lower panel, actual Northern blots. E. The effect of the various treatment protocols on EAAT2 and ACTIN protein levels. Upper panel presents relative EAAT2 protein expression versus ACTIN expression relative to control untreated or treated samples based on scanning of autoradiograms. Individual experiments were performed 3 times using triplicate samples and S.D. from the mean is presented.
as §2

hEAAT2 expression = hEAAT2 expression in PHFA, readout not specified; assay type: cell-based, human
hEAAT2 promoter = assay: flhEAAT2Prom-luc and deletion mutant luciferase reporter assay in PHFA treated with modulators; assay type: cell-based, human
Description: as §1
Construction of hEAAT2 Promoter Deletion Mutants and Performance of the Luciferase Assays. 5′-deletion mutants of the hEAAT2 promoter were made with exonuclease III digestion using the Erase-A-Base System (Promega) as described for the PEG-3 promoter (Su et al., 2000, Oncogene 19(30):3411-3421). The flhEAAT2Prom-luc and flhEAAT2Prom-luc deletion mutants were cloned into the pGL3-basic luciferase reporter vector (Promega) and luciferase reporter assays were performed as described (Su et al., 2000, Oncogene 19(30):3411-3421; Su et al., 2001, Nucleic Acids Res 29(8):1661-1671), except that instead of using lipofectamine, which was toxic to PHFA, the calcium phosphate precipitation transfection technique was used (Babiss et al., 1986, Proc Natl Acad Sci USA 83(7):2167-2171).
Preferential Expression of the hEAAT2 Promoter in PHFA and Deletion Analysis of the hEAAT2 Promoter. hEAAT2 is expressed in brain-derived cells, mainly astrocytes (Tanaka et al., 1997, Science 276(5319):1699-1702; Anderson et al., 2000, Glia 32(1):1-14). Experiments were performed to confirm hEAAT2 promoter activity in normal human astrocytes and to determine expression levels in other cell types (FIG. 2A). Primary early passage and established human normal and tumor cell lines were co-transfected with a putative full-length ˜2.5 kb hEAAT2 promoter, a SacII fragment extending from bp −2426 to bp +44, was cloned into the pGL3-basic vector (Promega), where it drove expression of the firefly luciferase (luc) gene, and a pSV-β-galactosidase expression plasmid. Relative fold expression of a full length hEAAT2 promoter-luciferase (flhEAAT2Prom-luc) construct was determined as described (Su et al., 2000, Oncogene 19(30):3411-3421; Su et al., 2001, Nucleic Acids Res 29(8):1661-1671), and activity versus transfection with a pSV-β-galactosidase plasmid was calculated as described (Su et al., 2000, Oncogene 19(30):3411-3421; Su et al., 2001, Nucleic Acids Res 29(8):1661-1671) to equalize for differences in transfection efficiency.
To examine further the relationship between hEAAT2 and treatment with the various glutamate transporter modulators, transient transfection assays were performed in PHFA using the flhEAAT2Prom-luc constructs and various deletions thereof (FIG. 4D). […] In the case of dbcAMP, promoter activity was enhanced by ˜3-fold.

TNF-α
relative rate of transcription of hEAAT2 RNA compared with GAPDH (hEAAT2 transcription): decreased | hEAAT2 mRNA expression (hEAAT2 mRNA; 7-day treatment, EGF 30 ng/ml, TGF-α 30 ng/ml, dbcAMP 200 μM, bromo-cAMP 100 μM, TNF-α 200 U/ml): decreased | time by which hEAAT2 mRNA expression was changed (hEAAT2 mRNA; time course, bromo-cAMP enhanced, TNF-α decreased): ≤ 48 h | glutamate uptake by PHFA (glutamate uptake by PHFA): inhibits | hEAAT2 protein levels (hEAAT2 protein): decreased | hEAAT2 expression (hEAAT2 expression): decreased | hEAAT2 promoter activity (in words) (hEAAT2 promoter): inhibited
